In ChEMBL document CHEMBL2396528, “Synthesis of new conjugated coumarin-benzimidazole hybrids and their anticancer activity” (2013):
Calls of active or inactive are those of the source. No cut-off for these calls is given here.

Assays:
Format in all cases: functional
OVCAR-3 = test: Cytotoxicity against human OVCAR3 cells assessed as growth inhibition at 10 uM after 48 hrs by SRB assay relative to control; details: OVCAR-3, 48 h, read-out: GI
Hs-578T = test: Cytotoxicity against human Hs578T cells assessed as growth inhibition at 10 uM after 48 hrs by SRB assay relative to control; details: for inhibition of growth at 10 µM: read-out: GI
SW-620 = test: Cytotoxicity against human SW620 cells assessed as growth inhibition at 10 uM after 48 hrs by SRB assay relative to control; details: SW-620, 48 h, read-out: GI
Malme-3M = test: Cytotoxicity against human MALME-3M cells assessed as growth inhibition at 10 uM after 48 hrs by SRB assay relative to control; details: read-out: GI
BT-549 = test: Cytotoxicity against human BT549 cells assessed as growth inhibition at 10 uM after 48 hrs by SRB assay relative to control; details: BT-549, 48 h, read-out: GI
NCI-H522 = test: Cytotoxicity against human NCI-H522 cells assessed as growth inhibition at 10 uM after 48 hrs by SRB assay relative to control; details: NCI-H522, 48 h, read-out: GI
HCC 2998 = test: Cytotoxicity against human HCC2998 cells assessed as growth inhibition at 10 uM after 48 hrs by SRB assay relative to control; details: for inhibition of growth at 10 µM: HCC 2998, 48 h, read-out: GI
HOP-62 = test: Cytotoxicity against human HOP62 cells assessed as growth inhibition at 10 uM after 48 hrs by SRB assay relative to control; details: HOP-62, 48 h, read-out: GI
SF-295 = test: Cytotoxicity against human SF295 cells assessed as growth inhibition at 10 uM after 48 hrs by SRB assay relative to control; details: SF-295, 48 h, read-out: GI
DU-145 = test: Cytotoxicity against human DU145 cells assessed as growth inhibition at 10 uM after 48 hrs by SRB assay relative to control; details: DU-145, 48 h, read-out: GI
IGROV-1 = test: Cytotoxicity against human IGROV1 cells assessed as growth inhibition at 10 uM after 48 hrs by SRB assay relative to control; details: IGROV-1, 48 h, read-out: GI
HCT-15 = test: Cytotoxicity against human HCT15 cells assessed as growth inhibition at 10 uM after 48 hrs by SRB assay relative to control; details: HCT-15, 48 h, read-out: GI
UACC-257 = test: Cytotoxicity against human UACC257 cells assessed as growth inhibition at 10 uM after 48 hrs by SRB assay relative to control; details: UACC-257, 48 h, read-out: GI
HOP-92 = test: Cytotoxicity against human HOP92 cells assessed as growth inhibition at 10 uM after 48 hrs by SRB assay relative to control; details: HOP-92, 48 h, read-out: GI
SNB-75 = test: Cytotoxicity against human SNB75 cells assessed as growth inhibition at 10 uM after 48 hrs by SRB assay relative to control; details: SNB-75, 48 h, read-out: GI
NCI-H226 = test: Cytotoxicity against human NCI-H226 cells assessed as growth inhibition at 10 uM after 48 hrs by SRB assay relative to control; details: NCI-H226, 48 h, read-out: GI
CCRF-CEM = test: Cytotoxicity against human CCRF-CEM cells assessed as growth inhibition at 10 uM after 48 hrs by SRB assay relative to control; details: read-out: GI
HCT-116 = test: Cytotoxicity against human HCT116 cells assessed as growth inhibition at 10 uM after 48 hrs by SRB assay relative to control; details: HCT-116, 48 h, read-out: GI
KM12 = test: Cytotoxicity against human KM12 cells assessed as growth inhibition at 10 uM after 48 hrs by SRB assay relative to control; details: KM12, 48 h, read-out: GI
PC-3 = test: Cytotoxicity against human PC3 cells assessed as growth inhibition at 10 uM after 48 hrs by SRB assay relative to control; details: PC-3, 48 h, read-out: GI
SR = test: Cytotoxicity against human SR cells assessed as growth inhibition at 10 uM after 48 hrs by SRB assay relative to control; details: read-out: GI
SF-539 = test: Cytotoxicity against human SF539 cells assessed as growth inhibition at 10 uM after 48 hrs by SRB assay relative to control; details: for inhibition of growth at 10 µM: SF-539, 48 h, read-out: GI
[1] = Cytotoxicity against human NCI-ADR-RES cells assessed as growth inhibition at 10 uM after 48 hrs by SRB assay relative to control; details: read-out: GI
U-251 = test: Cytotoxicity against human U251 cells assessed as growth inhibition at 10 uM after 48 hrs by SRB assay relative to control; details: U-251, 48 h, read-out: GI
LOX IMVI = test: Cytotoxicity against human LOXIMVI cells assessed as growth inhibition at 10 uM after 48 hrs by SRB assay relative to control; details: read-out: GI
OVCAR-4 = test: Cytotoxicity against human OVCAR4 cells assessed as growth inhibition at 10 uM after 48 hrs by SRB assay relative to control; details: OVCAR-4, 48 h, read-out: GI
UO-31 = test: Cytotoxicity against human UO31 cells assessed as growth inhibition at 10 uM after 48 hrs by SRB assay relative to control; details: UO-31, 48 h, read-out: GI
OVCAR-8 = test: Cytotoxicity against human OVCAR8 cells assessed as growth inhibition at 10 uM after 48 hrs by SRB assay relative to control; details: OVCAR-8, 48 h, read-out: GI
SK-MEL-5 = test: Cytotoxicity against human SK-MEL-5 cells assessed as growth inhibition at 10 uM after 48 hrs by SRB assay relative to control; details: SK-MEL-5, 48 h, read-out: GI
SF-268 = test: Cytotoxicity against human SF268 cells assessed as growth inhibition at 10 uM after 48 hrs by SRB assay relative to control; details: SF-268, 48 h, read-out: GI
MDA-MB-231 = test: Cytotoxicity against human MDA-MB-231 cells assessed as growth inhibition at 10 uM after 48 hrs by SRB assay relative to control; details: MDA-MB-231, 48 h, read-out: GI
NCI-H23 = test: Cytotoxicity against human NCI-H23 cells assessed as growth inhibition at 10 uM after 48 hrs by SRB assay relative to control; details: NCI-H23, 48 h, read-out: GI
K562 = test: Cytotoxicity against human K562 cells assessed as growth inhibition at 10 uM after 48 hrs by SRB assay relative to control; details: K562, 48 h, read-out: GI
SK-MEL-2 = test: Cytotoxicity against human SK-MEL-2 cells assessed as growth inhibition at 10 uM after 48 hrs by SRB assay relative to control; details: SK-MEL-2, 48 h, read-out: GI
MDA-MB-468 = test: Cytotoxicity against human MDA-MB-468 cells assessed as growth inhibition at 10 uM after 48 hrs by SRB assay relative to control; details: MDA-MB-468, 48 h, read-out: GI

SMILES | inhibition of growth at 10 µM (OVCAR-3) | inhibition of growth at 10 µM (SW-620) | inhibition of growth at 10 µM (Malme-3M) | inhibition of growth at 10 µM (BT-549) | inhibition of growth at 10 µM (NCI-H522) | inhibition of growth at 10 µM (HOP-62) | inhibition of growth at 10 µM (SF-295) | inhibition of growth at 10 µM (DU-145) | inhibition of growth at 10 µM (IGROV-1) | inhibition of growth at 10 µM (HCT-15) | inhibition of growth at 10 µM (UACC-257) | inhibition of growth at 10 µM (HOP-92) | inhibition of growth at 10 µM (SNB-75) | inhibition of growth at 10 µM (NCI-H226) | inhibition of growth at 10 µM (CCRF-CEM) | inhibition of growth at 10 µM (HCT-116) | inhibition of growth at 10 µM (KM12) | inhibition of growth at 10 µM (PC-3) | inhibition of growth at 10 µM [1] | inhibition of growth at 10 µM (U-251) | also measured
O=c1oc2cc(N3CCOCC3)ccc2cc1-c1nc2ccccc2[nH]1 | < 20% | < 20% | < 20% | < 20% | < 20% | < 20% | < 20% | < 20% | < 20% | < 20% | < 20% | 20.7% | < 20% | < 20% | < 20% | < 20% | < 20% | < 20% | < 20% | < 20% | inhibition of growth at 10 µM (Hs-578T): < 20%; inhibition of growth at 10 µM (HCC 2998): < 20%; inhibition of growth at 10 µM (SR): < 20%; inhibition of growth at 10 µM (SF-539): < 20%; inhibition of growth at 10 µM (LOX IMVI): < 20%; inhibition of growth at 10 µM (OVCAR-4): < 20%; inhibition of growth at 10 µM (UO-31): 24.9%; inhibition of growth at 10 µM (OVCAR-8): < 20%; inhibition of growth at 10 µM (SK-MEL-5): < 20%; inhibition of growth at 10 µM (SF-268): < 20%; inhibition of growth at 10 µM (MDA-MB-231): < 20%; inhibition of growth at 10 µM (NCI-H23): < 20%; inhibition of growth at 10 µM (K562): < 20%; inhibition of growth at 10 µM (SK-MEL-2): < 20%; inhibition of growth at 10 µM (MDA-MB-468): < 20%
O=c1oc2cc(NCCO)ccc2cc1-c1nc2ccccc2[nH]1 | 32.8% | 21.4% | 29.8% | 33.1% | 23.7% | 24.8% | 24.5% | < 20% | 24.5% | 72.7% | 28% | < 20% | < 20% | 30% | 72.5% | 62.2% | < 20% | 56.7% | 23.7% | 20.7% | inhibition of growth at 10 µM (Hs-578T): < 20%; inhibition of growth at 10 µM (HCC 2998): < 20%; inhibition of growth at 10 µM (SR): < 20%; inhibition of growth at 10 µM (SF-539): 25.9%; inhibition of growth at 10 µM (LOX IMVI): 54.3%; inhibition of growth at 10 µM (OVCAR-4): 44.8%; inhibition of growth at 10 µM (UO-31): 41.9%; inhibition of growth at 10 µM (OVCAR-8): 31.4%; inhibition of growth at 10 µM (SK-MEL-5): 35.8%; inhibition of growth at 10 µM (SF-268): 26.1%; inhibition of growth at 10 µM (MDA-MB-231): 58.9%; inhibition of growth at 10 µM (NCI-H23): 32.9%; inhibition of growth at 10 µM (K562): 57.3%; inhibition of growth at 10 µM (SK-MEL-2): < 20%; inhibition of growth at 10 µM (MDA-MB-468): 48.4%
O=c1oc2cc(NCCN3CCOCC3)ccc2cc1-c1nc2ccccc2[nH]1 | < 20% | < 20% | < 20% | < 20% | < 20% | < 20% | < 20% | < 20% | < 20% | < 20% | < 20% | 23.3% | 22.9% | < 20% | < 20% | < 20% | < 20% | < 20% | < 20% | < 20% | inhibition of growth at 10 µM (Hs-578T): < 20%; inhibition of growth at 10 µM (HCC 2998): < 20%; inhibition of growth at 10 µM (SF-539): < 20%; inhibition of growth at 10 µM (LOX IMVI): < 20%; inhibition of growth at 10 µM (OVCAR-4): < 20%; inhibition of growth at 10 µM (UO-31): 34.3%; inhibition of growth at 10 µM (OVCAR-8): < 20%; inhibition of growth at 10 µM (SK-MEL-5): < 20%; inhibition of growth at 10 µM (SF-268): < 20%; inhibition of growth at 10 µM (MDA-MB-231): < 20%; inhibition of growth at 10 µM (NCI-H23): < 20%; inhibition of growth at 10 µM (K562): < 20%; inhibition of growth at 10 µM (SK-MEL-2): < 20%; inhibition of growth at 10 µM (MDA-MB-468): < 20%
O=c1[nH]cc(F)c(=O)[nH]1 [FLUOROURACIL] | 47.4% | < 20% | 58.2% | 37.8% | 58% | 47.8% | 69% | 35.5% | 51.2% | 26.5% | 33.7% | 50.6% | 65.9% | 69.5% | 57.1% | 17.8% | 40.7% | 58.2% | 47.6% | 50.3% | growth inhibition (GI) (Hs-578T): Active; growth inhibition (GI) (HCC 2998): Active; inhibition of growth at 10 µM (SR): 24.8%; growth inhibition (GI) (SF-539): Active; inhibition of growth at 10 µM (LOX IMVI): 30.4%; inhibition of growth at 10 µM (OVCAR-4): 59.4%; inhibition of growth at 10 µM (UO-31): 41.3%; inhibition of growth at 10 µM (SF-268): 59%; inhibition of growth at 10 µM (MDA-MB-231): 78.1%; inhibition of growth at 10 µM (NCI-H23): 39%; inhibition of growth at 10 µM (K562): 42.3%; inhibition of growth at 10 µM (SK-MEL-2): 95.5%
